Test results from patent US10144737B2 (ETERNITY BIOSCIENCE INC., priority 2014, dated 2018).

Experiments:
[1] = molecular target: T1, Btk (Homo sapiens, UniProt Q06187); assay: Btk kinase assay (ADP-Glo); assay type: biochemical; conditions: ADP-Glo Btk kinase assay kit; ATP 1.2 μM; 60 minutes at room temperature
T1 construct: purchased Promega (Madison, Wis.)
Experimental: Btk kinase assay—The Btk kinase assay was performed using a ADP-Glo Btk kinase assay kit purchased from Promega (Madison, Wis.). The assay was conducted according to the protocols provided in the assay kit. In brief, the enzyme reaction was carried out in the kinase reaction buffer containing Btk (2 ng/μl), ATP (1.2 μM), poly GT peptide (0.3 μM), DTT (40 nM), MnCl2 (1.4 mM), and 1 xkinase buffer (included in the kit) in the presence or absence of the tested articles at various concentrations in 384-well plate at room temperature (22±1° C.) for 60 minutes. The final reaction volume for each reaction was 10 μl. Then, 4 μl of ADP-Glo reagent (included in the kit) was added into the reaction and the plate was further incubated for another 40 minutes to terminate the reaction and deplete the remaining ATP. Finally, 10 μl of the kinase detection reagent was added into each reaction to simultaneously convert ADP to ATP and allow the newly synthesized ATP to be measured by a plate-reading luminometer (Victor X5 2030 multilabel reader, PerkinElmer). IC50 value was calculated using appropriate programs in GraphPad Prism by plotting the logarithm of the concentration versus percent inhibition as compared with a vehicle (DMSO) control.

[2] = system: TMD-8 cells; assay: Cell proliferation assay (CellTiter-Glo), TMD-8 cells; assay type: cell-based; conditions: Homo sapiens, TMD8, 120 h, 5-day treatment, read-out: TMD8 cell growth (GI50 μM)
Experimental: Cell proliferation assay: TMD-8 and SU-DHL-1 cells were maintained at 37° C. in a humidified atmosphere with 5% CO2 in the recommended medium and serum concentrations. For cell proliferation assay, cells were seeded in 96-well pates at a density of 5,000 to 10,000 cells per well and cultured overnight at 37° C. in recommended medium supplemented with 5-10% FBS. On the next day, the test articles at various concentrations or vehicle control (0.5% DMSO) were added into cell culture. After 5-day treatment, the growth of cells was assayed by the CellTiter-Glo® Luminestceaent Cell Viability Assay (Promega). IC50 values were calculated using GraphPad Prism by plotting the logarithm of the concentration versus percent inhibition of cell growth as compared with the vehicle control.

T1 sequence (Q06187 whole entry): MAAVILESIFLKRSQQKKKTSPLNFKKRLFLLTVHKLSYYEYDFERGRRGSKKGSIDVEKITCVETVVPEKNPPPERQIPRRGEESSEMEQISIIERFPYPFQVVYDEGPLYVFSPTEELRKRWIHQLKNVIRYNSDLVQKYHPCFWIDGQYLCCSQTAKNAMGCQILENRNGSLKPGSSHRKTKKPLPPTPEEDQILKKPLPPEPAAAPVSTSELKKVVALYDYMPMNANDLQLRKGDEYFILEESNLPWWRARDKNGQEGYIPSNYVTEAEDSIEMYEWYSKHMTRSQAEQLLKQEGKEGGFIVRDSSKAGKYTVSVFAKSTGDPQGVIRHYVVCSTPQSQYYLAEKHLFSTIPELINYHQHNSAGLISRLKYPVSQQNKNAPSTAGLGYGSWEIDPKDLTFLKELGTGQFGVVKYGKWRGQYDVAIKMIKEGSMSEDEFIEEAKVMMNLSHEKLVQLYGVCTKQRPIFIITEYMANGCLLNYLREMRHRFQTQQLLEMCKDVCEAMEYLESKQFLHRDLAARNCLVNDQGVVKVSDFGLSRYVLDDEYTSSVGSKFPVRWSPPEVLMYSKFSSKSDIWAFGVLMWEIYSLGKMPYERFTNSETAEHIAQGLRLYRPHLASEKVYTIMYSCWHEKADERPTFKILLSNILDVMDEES

C=CC(=O)N1CC[C@@H](Nc2ncnc3[nH]c(C#Cc4cccc(Cl)c4)cc23)C1 [Example 57, (R)-1-(3-((6-((3-chlorophenyl)ethynyl)-7H-pyrrolo[2,3-d]pyrimidin-4-yl)amino)pyrrolidin-1-yl)prop-2-en-1-one]
IC50 [1]: 24 nM | GI50 [2]: 0.01 µM

CN(C)C/C=C/C(=O)N1CC[C@@H](Nc2ncnc3[nH]c(C#Cc4cccc(Cl)c4)cc23)C1 [Example 58, (R,E)-1-(3-((6-((3-chlorophenyl)ethynyl)-7H-pyrrolo[2,3-d]pyrimidin-4-yl)amino)pyrrolidin-1-yl)-4-(dimethylamino)but-2-en-1-one]
IC50 [1]: 0.4 nM | GI50 [2]: 0.171 µM

C=CC(=O)N1CC[C@@H](Nc2ncnc3[nH]c(C#Cc4ccccc4OC)cc23)C1 [Example 59, (R)-1-(3-((6-((2-methoxyphenyl)ethynyl)-7H-pyrrolo[2,3-d]pyrimidin-4-yl)amino)pyrrolidin-1-yl)prop-2-en-1-one]
IC50 [1]: 742 nM | GI50 [2]: 1.97 µM

C=CC(=O)N1CC[C@@H](Nc2ncnc3[nH]c(C#Cc4cccc(OC)c4)cc23)C1 [Example 60, (R)-1-(3-((6-((3-methoxyphenyl)ethynyl)-7H-pyrrolo[2,3-d]pyrimidin-4-yl)amino)pyrrolidin-1-yl)prop-2-en-1-one]
IC50 [1]: 11 nM | GI50 [2]: 0.005 µM

C=CC(=O)N1CC[C@@H](Nc2ncnc3[nH]c(C#Cc4cccc(F)c4)cc23)C1 [Example 61, (R)-1-(3-((6-((3-fluorophenyl)ethynyl)-7H-pyrrolo[2,3-d]pyrimidin-4-yl)amino)pyrrolidin-1-yl)prop-2-en-1-one]
IC50 [1]: 121 nM | GI50 [2]: 0.022 µM

C=CC(=O)N1CC[C@@H](Nc2ncnc3[nH]c(C#Cc4ccc(F)cc4)cc23)C1 [Example 62, (R)-1-(3-((6-((4-fluorophenyl)ethynyl)-7H-pyrrolo[2,3-d]pyrimidin-4-yl)amino)pyrrolidin-1-yl)prop-2-en-1-one]
IC50 [1]: 52 nM | GI50 [2]: 0.024 µM

C=CC(=O)N1CC[C@@H](Nc2ncnc3[nH]c(C#Cc4ccc(Cl)cc4)cc23)C1 [Example 63, (R)-1-(3-((6-((4-chlorophenyl)ethynyl)-7H-pyrrolo[2,3-d]pyrimidin-4-yl)amino)pyrrolidin-1-yl)prop-2-en-1-one]
IC50 [1]: 4.8 nM | GI50 [2]: 0.0027 µM

C=CC(=O)N1CC[C@@H](Nc2ncnc3[nH]c(C#Cc4ccc(Cl)c(Cl)c4)cc23)C1 [Example 64, (R)-1-(3-((6-((3,4-dichlorophenyl)ethynyl)-7H-pyrrolo[2,3-d]pyrimidin-4-yl)amino)pyrrolidin-1-yl)prop-2-en-1-one]
IC50 [1]: 0.2 nM | GI50 [2]: 0.005 µM

C=CC(=O)N1CC[C@@H](Nc2ncnc3[nH]c(C#Cc4cccc(OC(F)(F)F)c4)cc23)C1 [Example 65, (R)-1-(3-((6-((3-trifluoromethoxyphenyl)ethynyl)-7H-pyrrolo[2,3-d]pyrimidin-4-yl)amino)pyrrolidin-1-yl)prop-2-en-1-one]
IC50 [1]: 173 nM | GI50 [2]: 0.0027 µM

C=CC(=O)N1CC[C@@H](Nc2ncnc3[nH]c(C#Cc4ccc(OC(F)(F)F)cc4)cc23)C1 [Example 66, (R)-1-(3-((6-((4-trifluoromethoxyphenyl)ethynyl)-7H-pyrrolo[2,3-d]pyrimidin-4-yl)amino)pyrrolidin-1-yl)prop-2-en-1-one]
IC50 [1]: 215 nM | GI50 [2]: 0.0012 µM

C=CC(=O)N1CC[C@@H](Nc2ncnc3[nH]c(C#Cc4ccc(C(F)(F)F)cc4)cc23)C1 [Example 67, (R)-1-(3-((6-((4-trifluoromethylphenyl)ethynyl)-7H-pyrrolo[2,3-d]pyrimidin-4-yl)amino)pyrrolidin-1-yl)prop-2-en-1-one]
IC50 [1]: 272 nM | GI50 [2]: 0.004 µM

C=CC(=O)N1CC[C@@H](Nc2ncnc3[nH]c(C#Cc4cccc(C(F)(F)F)c4)cc23)C1 [Example 68, (R)-1-(3-((6-((3-trifluoromethylphenyl)ethynyl)-7H-pyrrolo[2,3-d]pyrimidin-4-yl)amino)pyrrolidin-1-yl)prop-2-en-1-one]
IC50 [1]: 187 nM | GI50 [2]: 0.003 µM

C=CC(=O)N1CC[C@@H](Nc2ncnc3[nH]c(C#Cc4cccc(C)c4)cc23)C1 [Example 69, (R)-1-(3-((6-((3-methylphenyl)ethynyl)-7H-pyrrolo[2,3-d]pyrimidin-4-yl)amino)pyrrolidin-1-yl)prop-2-en-1-one]
IC50 [1]: 182 nM | GI50 [2]: 0.007 µM

C=CC(=O)N1CC[C@@H](Nc2ncnc3[nH]c(C#Cc4ccc(Cl)c(F)c4)cc23)C1 [Example 70, (R)-1-(3-((6-((3-fluoro-4-chlorophenyl)ethynyl)-7H-pyrrolo[2,3-d]pyrimidin-4-yl)amino)pyrrolidin-1-yl)prop-2-en-1-one]
IC50 [1]: 7.2 nM | GI50 [2]: 0.0013 µM

C=CC(=O)N1CC[C@@H](Nc2ncnc3[nH]c(C#Cc4ccc5ccccc5c4)cc23)C1 [Example 71, (R)-1-(3-((6-(naphthalen-2-ylethynyl)-7H-pyrrolo[2,3-d]pyrimidin-4-yl)amino)pyrrolidin-1-yl)prop-2-en-1-one]
IC50 [1]: 10 nM | GI50 [2]: 0.001 µM

C=CC(=O)N1CC[C@@H](Nc2ncnc3[nH]c(C#Cc4ccc5c(c4)OCO5)cc23)C1 [Example 72, (R)-1-(3-((6-(benzo[d][1,3]dioxol-5-ylethynyl)-7H-pyrrolo[2,3-d]pyrimidin-4-yl)amino)pyrrolidin-1-yl)prop-2-en-1-one]
IC50 [1]: 3.5 nM | GI50 [2]: 0.0007 µM

C=CC(=O)N1CC[C@@H](Nc2ncnc3[nH]c(C#Cc4ccc5sccc5c4)cc23)C1 [Example 73, (R)-1-(3-((6-(benzo[b]thiophen-5-ylethynyl)-7H-pyrrolo[2,3-d]pyrimidin-4-yl)amino)pyrrolidin-1-yl)prop-2-en-1-one]
IC50 [1]: 0.1 nM | GI50 [2]: 0.001 µM

C=CC(=O)N1CC[C@@H](Nc2ncnc3[nH]c(C#Cc4ccc5occc5c4)cc23)C1 [Example 74, (R)-1-(3-((6-(benzofuran-5-ylethynyl)-7H-pyrrolo[2,3-d]pyrimidin-4-yl)amino)pyrrolidin-1-yl)prop-2-en-1-one]
IC50 [1]: 0.03 nM | GI50 [2]: 0.0012 µM

C=CC(=O)N1CC[C@@H](Nc2ncnc3[nH]c(C#Cc4cccs4)cc23)C1 [Example 75, (R)-1-(3-((6-(thiophen-2-ylethynyl)-7H-pyrrolo[2,3-d]pyrimidin-4-yl)amino)pyrrolidin-1-yl)prop-2-en-1-one]
IC50 [1]: 30 nM | GI50 [2]: 0.0049 µM

C=CC(=O)N1CC[C@@H](Nc2ncnc3[nH]c(C#Cc4ccsc4)cc23)C1 [Example 76, (R)-1-(3-((6-(thiophen-3-ylethynyl)-7H-pyrrolo[2,3-d]pyrimidin-4-yl)amino)pyrrolidin-1-yl)prop-2-en-1-one]
IC50 [1]: 1 nM | GI50 [2]: 0.0032 µM

C=CC(=O)N1CC[C@@H](Nc2ncnc3[nH]c(C#Cc4ccc5ncccc5c4)cc23)C1 [Example 77, (R)-1-(3-((6-(quinolin-6-ylethynyl)-7H-pyrrolo[2,3-d]pyrimidin-4-yl)amino)pyrrolidin-1-yl)prop-2-en-1-one]
IC50 [1]: 145 nM | GI50 [2]: 0.526 µM

C=CC(=O)N1CC[C@@H](Nc2ncnc3[nH]c(C#CC4CCCCC4)cc23)C1 [Example 78, (R)-1-(3-((6-(cyclohexylethynyl)-7H-pyrrolo[2,3-d]pyrimidin-4-yl)amino)pyrrolidin-1-yl)prop-2-en-1-one]
IC50 [1]: 702 nM | GI50 [2]: 2.68 µM

C=CC(=O)N1CC[C@@H](Nc2ncnc3[nH]c(C#Cc4ccoc4)cc23)C1 [Example 79, (R)-1-(3-((6-(furan-3-ylethynyl)-7H-pyrrolo[2,3-d]pyrimidin-4-yl)amino)pyrrolidin-1-yl)prop-2-en-1-one]
IC50 [1]: 2 nM | GI50 [2]: 0.031 µM

C=CC(=O)N1CC[C@@H](Nc2ncnc3[nH]c(C#Cc4cnn(C)c4)cc23)C1 [Example 80, (R)-1-(3-((6-((1-methyl-1H-pyrazol-4-yl)ethynyl)-7H-pyrrolo[2,3-d]pyrimidin-4-yl)amino)pyrrolidin-1-yl)prop-2-en-1-one]
IC50 [1]: 255 nM | GI50 [2]: 0.51 µM

C=CC(=O)N1CC[C@@H](Nc2ncnc3[nH]c(C#CCOc4ccccc4OC(F)(F)F)cc23)C1 [Example 81, (R)-1-(3-((6-(3-(2-(trifluoromethoxy)phenoxy)prop-1-yn-1-yl)-7H-pyrrolo[2,3-d]pyrimidin-4-yl)amino)pyrrolidin-1-yl)prop-2-en-1-one]
IC50 [1]: 33 nM | GI50 [2]: 0.003 µM

C=CC(=O)N1CC[C@@H](Nc2ncnc3[nH]c(C#CCOc4ccccc4C#N)cc23)C1 [Example 82, (R)-1-(3-((6-(3-(2-cyanophenoxy)prop-1-yn-1-yl)-7H-pyrrolo[2,3-d]pyrimidin-4-yl)amino)pyrrolidin-1-yl)prop-2-en-1-one]
IC50 [1]: 38 nM | GI50 [2]: 0.0045 µM
